This is an account of results in ChEMBL document CHEMBL1157999, “A new epidioxy sterol as an antifouling substance from a palauan marine sponge, lendenfeldia chondrodes” (1999).

Common to all, as to format: functional, Mytilus edulis/galloprovincialis MCLGV-2007
Assay [1] concerns Mytilus edulis. Kind of assay: Antifouling activity against blue mussel assessed as responding mussel at 1 ppm by foot stimulant method.
Assay [2] deals with Mytilus edulis. Briefly: Antifouling activity against blue mussel assessed as responding mussel at 10 ppm by foot stimulant method.
Assay [3] relates to Mytilus edulis. Briefly: Antifouling activity against blue mussel assessed as responding mussel at 100 ppm by foot stimulant method.

Turning to `CC(C)CCC[C@@H](C)[C@H]1CC[C@@H]2[C@]1(C)CC[C@H]1[C@]23C=C[C@]2(C[C@@H](O)CC[C@]12C)OO3`, the Activity with Mytilus edulis [1], in the assay with Mytilus edulis [2] and with Mytilus edulis [3] was 0% each time.

As for `C=C(CC[C@@H](C)[C@H]1CC[C@@H]2[C@]1(C)CC=C1[C@]23C=C[C@]2(C[C@@H](O)CC[C@]12C)OO3)C(C)C`, the Activity in the assay with Mytilus edulis [1], in the assay with Mytilus edulis [2] and in the assay on Mytilus edulis [3] was 0% each time.

For the molecule `CC(=O)OC[C@]12CCCC(C)(C)[C@@H]1CC[C@]1(C)[C@@H]2C[C@H]2OC(=O)[C@H]3[C@H](C(C)=O)[C@@H](O)C[C@@H]1[C@]23C`, the figures for the Activity in the assay on Mytilus edulis [1], with Mytilus edulis [2] and with Mytilus edulis [3] were 90%, 100% and 100%, respectively.

Take `CC(=O)O[C@H]1C[C@H]2[C@@](C)(CC[C@H]3C(C)(C)CCC[C@@]32C=O)[C@@H]2CC=C(C(C)=O)[C@H](C=O)[C@@]12C`: the Activity amounted to 10% in the assay with Mytilus edulis [1], 55% in the assay with Mytilus edulis [2] and 75% with Mytilus edulis [3].

Consider `CC(=O)C1=CC[C@H]2[C@]3(C)CC[C@H]4C(C)(C)CCC[C@]4(C(=O)O)[C@H]3CC(=O)[C@]2(C)[C@H]1C=O`, for which the Activity is 95% in the assay with Mytilus edulis [1], 100% with Mytilus edulis [2] and 100% in the assay on Mytilus edulis [3].

As for `C=CC(CC[C@@H](C)[C@H]1CC[C@@H]2[C@]1(C)CC[C@H]1[C@]23C=C[C@]2(C[C@@H](O)CC[C@]12C)OO3)(OO)C(C)C` (mixture of isomers), the Activity in the assay on Mytilus edulis [1] amounted to 0%; in the assay with Mytilus edulis [2], 20%; in the assay on Mytilus edulis [3], 95%.
